Source: patent US20180200257A1, “METHODS FOR THE TREATMENT OF INFLAMMATORY DISORDERS” (Galapagos NV, priority 2015, published 2018)

Tested on: Subjects With Active Crohn's Disease With Evidence of Mucosal Ulceration
Test: Study 3 - SES-CD endoscopic scores
Assay type: in vivo, human
Settings: 200 mg, LOCF; for Deep remission (CDAI score < 150 points, SES-CD score ≤ 4, ulcerated subscore ≤ 1 in all 5 segments) / Endoscopic remission (SES-CD % improvement ≤ 4, ulcerated subscore ≤ 1 in all 5 segments) / Endoscopic response (SES-CD % improvement ≥ 50) / Mucosal healing (SES-CD % = 0): 10 weeks
From the text: Double-Blind, Randomized, Placebo-Controlled, Multi-Centre Study to Investigate the Efficacy and Safety of Compound 1 in Subjects With Active Crohn's Disease With Evidence of Mucosal Ulceration. This is a double-blind, randomized, placebo-controlled, multi-centre Phase 2 study to investigate the efficacy and safety of Compound 1 administered once daily for the treatment of active CD with evidence of mucosal ulceration. The pharmacokinetics (including a PK substudy) and pharmacodynamics of Compound 1 and metabolite in CD will also be characterised. A total of 180 eligible subjects will be randomized to receive Compound 1 or placebo in addition to their stable background treatment (eg, corticosteroids, aminosalicylates, or CD-related antibiotics). The study will consist of 2 parts, with total treatment duration of 20 weeks. Randomization in Part 1 will be stratified according the subject's previous anti-TNF exposure/response, CRP level at Screening, and oral corticosteroid use at visit Day −1. After the first 10 weeks of treatment in Part 1, patients will be re-randomized for Part 2 as shown in the diagram below and will be stratified according to the subject's clinical response, previous anti-TNF exposure/response, and oral corticosteroid use at visit Day -1. [table] For the evaluation of disease severity the Crohn's Disease Index of Severity (CDEIS), and the Simple Endoscopic Score for Crohn's Disease (SES-CD) may be used. These are validated scores for the measurement of endoscopic findings, (Sipponen et al, 2010). For the SES-CD, four endoscopic variables in the five segments are scored from 0-3: Variable “presence and size of ulcers” is scored 0 when no ulcers are present, small ulcers (diameter 0.1-0.5 cm) are scored 1, medium-sized ulcers (diameter 0.5-2 cm) 2, and large ulcers (>2 cm) 3. Variable “extent of ulcerated surface” is scored 0 when no ulcers were present, 1 when extent was <10%, 2 when extent is 10%-30%, and 3 when it is >30%. The variable extent of affected surface is scored 0 if none, 1 when <50%, 2 when 50%-75%, and 3 when >75%. The presence and type of narrowings is scored 0 when no narrowings are present, a single passable narrowing is scored 1, multiple passable narrowings are scored 2, and a nonpassable narrowing is scored 3.

[1] = Anti-TNF experienced non-responders
[2] = baseline corticosteroid use: with steroids
[3] = baseline corticosteroid use: without steroids

Structure (SMILES): O=C(Nc1nc2cccc(-c3ccc(CN4CCS(=O)(=O)CC4)cc3)n2n1)C1CC1 [Compound 1, cyclopropanecarboxylic acid {5-[4-(1,1-dioxo-thiomorpholin-4-ylmethyl)-phenyl]-[1,2,4]triazolo[1,5-a]pyridin-2-yl}-amide]
- Deep remission (CDAI score < 150 points, SES-CD score ≤ 4, ulcerated subscore ≤ 1 in all 5 segments) (Anti-TNF Naïve): 0%
- Endoscopic remission (SES-CD % improvement ≤ 4, ulcerated subscore ≤ 1 in all 5 segments) (Anti-TNF Naïve): 16%
- Endoscopic response (SES-CD % improvement ≥ 50) (Anti-TNF Naïve): 28%
- Mucosal healing (SES-CD % = 0) (Anti-TNF Naïve): 0%
- Deep remission (CDAI score < 150 points, SES-CD score ≤ 4, ulcerated subscore ≤ 1 in all 5 segments) [1]: 6%
- Endoscopic remission (SES-CD % improvement ≤ 4, ulcerated subscore ≤ 1 in all 5 segments) [1]: 12%
- Endoscopic response (SES-CD % improvement ≥ 50) [1]: 23%
- Mucosal healing (SES-CD % = 0) [1]: 1%
- Deep remission (CDAI score < 150 points, SES-CD score ≤ 4, ulcerated subscore ≤ 1 in all 5 segments) [2]: 0%
- Endoscopic remission (SES-CD % improvement ≤ 4, ulcerated subscore ≤ 1 in all 5 segments) [2]: 12%
- Endoscopic response (SES-CD % improvement ≥ 50) [2]: 22%
- Mucosal healing (SES-CD % = 0) [2]: 0%
- Deep remission (CDAI score < 150 points, SES-CD score ≤ 4, ulcerated subscore ≤ 1 in all 5 segments) [3]: 5%
- Endoscopic remission (SES-CD % improvement ≤ 4, ulcerated subscore ≤ 1 in all 5 segments) [3]: 15%
- Endoscopic response (SES-CD % improvement ≥ 50) [3]: 28%
- Mucosal healing (SES-CD % = 0) [3]: 5%
- Deep remission (CDAI score < 150 points, SES-CD score ≤ 4, ulcerated subscore ≤ 1 in all 5 segments) (overall): 8%
- Endoscopic remission (SES-CD % improvement ≤ 4, ulcerated subscore ≤ 1 in all 5 segments) (overall): 14%
- Endoscopic response (SES-CD % improvement ≥ 50) (overall): 25%
- Mucosal healing (SES-CD % = 0) (overall): 2%
- Deep remission (CDAI score < 150 points, SES-CD score ≤ 4, ulcerated subscore ≤ 1 in all 5 segments) (screening CRP ≤ 10 ml/L): 10%
- Endoscopic remission (SES-CD % improvement ≤ 4, ulcerated subscore ≤ 1 in all 5 segments) (screening CRP ≤ 10 ml/L): 16%
- Endoscopic response (SES-CD % improvement ≥ 50) (screening CRP ≤ 10 ml/L): 23%
- Mucosal healing (SES-CD % = 0) (screening CRP ≤ 10 ml/L): 3%
- Deep remission (CDAI score < 150 points, SES-CD score ≤ 4, ulcerated subscore ≤ 1 in all 5 segments) (screening CRP ≥ 10 mg/L): 0%
- Endoscopic remission (SES-CD % improvement ≤ 4, ulcerated subscore ≤ 1 in all 5 segments) (screening CRP ≥ 10 mg/L): 0%
- Endoscopic response (SES-CD % improvement ≥ 50) (screening CRP ≥ 10 mg/L): 28%
- Mucosal healing (SES-CD % = 0) (screening CRP ≥ 10 mg/L): 0%
- SES-CD mean, baseline (Baseline): 14.2
- SES-CD mean CFB, W 10 (week 10): −2.6
- SES-CD mean, W 10 (week 10): 11.6
